Reference: patent US8247211B2, “Glycopeptide antibiotics” (American Cyanamid Company, priority 2001, dated 2012)
≈ marks a conversion by molar mass, not a printed value.

What was measured:
Assay in all cases: In vitro antibacterial evaluation: minimum inhibitory concentration (MIC), broth dilution method
Type in all cases: cell-based
Details in all cases: broth dilution, 18 hours at 35° C.
Enterococcus sp. = tested on: Enterococcus sp.
Summary of the method: (§1)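 Following NCCLS approved standard M7-A2, compounds are serially diluted from 64 to 0.06 μg/mL in Muller-Hinton II […] and inoculated at 5×10^5 CFU/mL; the MIC is the minimum concentration at which growth is inhibited.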

Staphylococcus sp. = tested on: Staphylococcus sp.
Summary of the method: as §1

Streptococcus sp. = tested on: Streptococcus sp.
Summary of the method: as §1

Escherichia coli = tested on: Escherichia coli

MIC Enterococcus avium (GC 4558) (Enterococcus sp.; Enterococcus avium (GC 4558)): 8 µg/mL (≈ 6.81 µM)
MIC Enterococcus faecalis (ATCC 29212) (Enterococcus sp.; Enterococcus faecalis (ATCC 29212)): 16 µg/mL (≈ 13.6 µM)
MIC Enterococcus faecalis (GC 2242) (Enterococcus sp.; Enterococcus faecalis (GC 2242)): 16 µg/mL (≈ 13.6 µM)
MIC Enterococcus faecalis (GC 2691) (Enterococcus sp.; Enterococcus faecalis (GC 2691)): 16 µg/mL (≈ 13.6 µM)
MIC Enterococcus faecalis (GC 3059) (Enterococcus sp.; Enterococcus faecalis (GC 3059)): 16 µg/mL (≈ 13.6 µM)
MIC Enterococcus faecalis (GC 4552) (Enterococcus sp.; Enterococcus faecalis (GC 4552)): 16 µg/mL (≈ 13.6 µM)
MIC Enterococcus faecalis (GC 4553) (Enterococcus sp.; Enterococcus faecalis (GC 4553)): 8 µg/mL (≈ 6.81 µM)
MIC Enterococcus faecalis (GC 4554) (Enterococcus sp.; Enterococcus faecalis (GC 4554)): 32 µg/mL (≈ 27.3 µM)
MIC Enterococcus faecalis (GC 6189) (Enterococcus sp.; Enterococcus faecalis (GC 6189)): 16 µg/mL (≈ 13.6 µM)
MIC Enterococcus faecium (GC 2243) (Enterococcus sp.; Enterococcus faecium (GC 2243)): 8 µg/mL (≈ 6.81 µM)
MIC Enterococcus faecium (GC 4556) (Enterococcus sp.; Enterococcus faecium (GC 4556)): 32 µg/mL (≈ 27.3 µM)
MIC Enterococcus faecium (GC 4557) (Enterococcus sp.; Enterococcus faecium (GC 4557)): 8 µg/mL (≈ 6.81 µM)
MIC Enterococcus avium (GC 4558) (Enterococcus sp.): 8 µg/mL (≈ 6.81 µM)
MIC Enterococcus faecalis (ATCC 29212) (Enterococcus sp.): 16 µg/mL (≈ 13.6 µM)
MIC Enterococcus faecalis (GC 2242) (Enterococcus sp.): 16 µg/mL (≈ 13.6 µM)
MIC Enterococcus faecalis (GC 2691) (Enterococcus sp.): 16 µg/mL (≈ 13.6 µM)
MIC Enterococcus faecalis (GC 3059) (Enterococcus sp.): 16 µg/mL (≈ 13.6 µM)
MIC Enterococcus faecalis (GC 4552) (Enterococcus sp.): 16 µg/mL (≈ 13.6 µM)
MIC Enterococcus faecalis (GC 4553) (Enterococcus sp.): 8 µg/mL (≈ 6.81 µM)
MIC Enterococcus faecalis (GC 4554) (Enterococcus sp.): 32 µg/mL (≈ 27.3 µM)
MIC Enterococcus faecalis (GC 6189) (Enterococcus sp.): 16 µg/mL (≈ 13.6 µM)
MIC Enterococcus faecium (GC 2243) (Enterococcus sp.): 8 µg/mL (≈ 6.81 µM)
MIC Enterococcus faecium (GC 4556) (Enterococcus sp.): 32 µg/mL (≈ 27.3 µM)
MIC Enterococcus faecium (GC 4557) (Enterococcus sp.): 8 µg/mL (≈ 6.81 µM)
MIC Coagulase Negative Staphylococcus (GC 4547) (Staphylococcus sp.): 8 µg/mL (≈ 6.81 µM)
MIC Coagulase Negative Staphylococcus (GC 4548) (Staphylococcus sp.): 8 µg/mL (≈ 6.81 µM)
MIC Coagulase Negative Staphylococcus (GC 4549) (Staphylococcus sp.): 4 µg/mL (≈ 3.41 µM)
MIC Coagulase Negative Staphylococcus (GC 4551) (Staphylococcus sp.): 8 µg/mL (≈ 6.81 µM)
MIC Coagulase Negative Staphylococcus (GC 6257) (Staphylococcus sp.): 4 µg/mL (≈ 3.41 µM)
MIC Staphylococcus aureus SMITH (GC 4543) (Staphylococcus sp.): 16 µg/mL (≈ 13.6 µM)
MIC Staphylococcus aureus-SMITH (GC 4543) (Staphylococcus sp.; strain SMITH GC 4543): 16 µg/mL (≈ 13.6 µM)
MIC Streptococcus agalactiae (GC 4564) (Streptococcus sp.; Streptococcus agalactiae (GC 4564)): 16 µg/mL (≈ 13.6 µM)
MIC Streptococcus pneumoniae (ATCC 6301) (Streptococcus sp.; Streptococcus pneumoniae (ATCC 6301)): 8 µg/mL (≈ 6.81 µM)
MIC Streptococcus pneumoniae (GC 1894) (Streptococcus sp.; Streptococcus pneumoniae (GC 1894)): 8 µg/mL (≈ 6.81 µM)
MIC Streptococcus pneumoniae (GC 4565) (Streptococcus sp.; Streptococcus pneumoniae (GC 4565)): 16 µg/mL (≈ 13.6 µM)
MIC Streptococcus pyogenes (GC 4563) (Streptococcus sp.; Streptococcus pyogenes (GC 4563)): 4 µg/mL (≈ 3.41 µM)
MIC Streptococcus agalactiae (GC 4564) (Streptococcus sp.): 16 µg/mL (≈ 13.6 µM)
MIC Streptococcus pneumoniae (ATCC 6301) (Streptococcus sp.): 8 µg/mL (≈ 6.81 µM)
MIC Streptococcus pneumoniae (GC 1894) (Streptococcus sp.): 8 µg/mL (≈ 6.81 µM)
MIC Streptococcus pneumoniae (GC 4565) (Streptococcus sp.): 16 µg/mL (≈ 13.6 µM)
MIC Streptococcus pyogenes (GC 4563) (Streptococcus sp.): 4 µg/mL (≈ 3.41 µM)
MIC Escherichia coli (GC 4560) (Escherichia coli): 16 µg/mL (≈ 13.6 µM)
Compound: CC(c1ccccc1)C1NC(=O)CNC(=O)C(CO)NC(=O)C(C(O)C2CNC(=N)N2C2OC(CO)C(O)C(O)C2O)NC(=O)C(C(O)C2CNC(=N)N2)NC(=O)C(Cc2ccc3oc(C=C(c4ccccc4)c4ccccc4)nc3c2)NC1=O (stereo not drawn) [Example 39, Cyclo[3-[2-(2,2-diphenylethenyl)-1,3-benzoxazol-5-yl]alanyl-3-(2-iminoimidazolidin-4-yl)seryl-3-(3-hexopyranosyl-2-iminoimidazolidin-4-yl)serylserylglycyl-β-methylphenylalanyl]]
MIC Staphylococcus haemolyticus (GC 4546) (Staphylococcus sp.): 8 µg/mL (≈ 6.81 µM)
